Data taken from ChEMBL document CHEMBL3430912, “GSK Tres Cantos Anti-Kinetoplastid Screening (TCAKS) Data”.

Key:
Trypanosoma cruzi [1] = test: GSK_TCAKS: pIC50 Trypanosoma cruzi viability assay using beta-GAL activity. This assay was run at single shot at 5uM compound concentration per well. The biological reagents consisted of NIH-3T3 host cells and trypomastigotes parasitic cells; both cell types were set to a 3.3 * 10^5 cells/mL dilution in assay DMEM by means of a CASY cell counter device using a 60um capillary. 6 uL of the mixture were dispensed per well (about 1 * 10^3 host-cells and 1 * 10^3 parasites) with a Multidrop Combi dispenser. […] In all wells, the percentage of DMSO never exceeded 0.5%. Plates incubated for four days at 37C, 5% CO2. The substrate used for the assay fluorescence intensity (FLINT) readout was resorufin-beta-D-galactopiranoside (Sigma-Aldrich) at 5uM per well. It was diluted in PBS supplemented with the soft detergent Igepal (Fluka).; assay type: functional, organism-based, Mus musculus; settings: Tulahuen, NIH3T3
Trypanosoma cruzi [2] = test: (§1) GSK_TCAKS: pIC50 Trypanosoma cruzi Imaging: Infected Cells. […] Cells were then washed once with PBS before infection. T. cruzi trypomastigotes, collected at days 5 to 8 after infection from LLC-MK2 parasite infected cultures, were allowed to swim out for 4h at 37C from a centrifuged pellet (2,500 rpm/10 min/room temperature). Trypomastigotes were then collected and counted in a CASY Cell Counter. Trypomastigotes, in supplemented DMEM, were added to H9c2 cultures in a multiplicity of infection of 1 and incubated for 18 h. Cells were washed once with PBS before incubation of the infected H9c2 monolayer with trypsin (Life-Technologies) to detach cells from the flask. Cells were counted in a CASY Cell Counter using a 150 um capillary and their density set at 5 * 10^4 cells per mL in supplemented assay DMEM. Infected H9c2 were dispensed into 384-well poly-lysine coated assay plates at 50uL per well using a Multidrop Combi dispenser. After seeding them, the plates were incubated at 37C, 5% CO2 for 72h. Cultures were then fixed and stained by addition of 50 uL of a solution containing 8% formaldehyde and 4 uM DRAQ5 DNA dye (BioStatus, UK) per well. […] Five images were collected per well for reliable statistical analysis. Automated image analysis was performed with a script developed on Acapella High Content Imaging and Analysis Software (PerkinElmer). Output: percentage of infected cells per well as a second infection marker.; assay type: functional, organism-based, Rattus norvegicus; settings: H9c2, 4 h
Trypanosoma cruzi [3] = test: GSK_TCAKS: pIC50 Trypanosoma cruzi Imaging: Amastigotes/Cell. […] Cells were then washed once with PBS before infection. T. cruzi trypomastigotes, collected at days 5 to 8 after infection from LLC-MK2 parasite infected cultures, were allowed to swim out for 4h at 37C from a centrifuged pellet (2,500 rpm/10 min/room temperature). Trypomastigotes were then collected and counted in a CASY Cell Counter. Trypomastigotes, in supplemented DMEM, were added to H9c2 cultures in a multiplicity of infection of 1 and incubated for 18 h. Cells were washed once with PBS before incubation of the infected H9c2 monolayer with trypsin (Life-Technologies) to detach cells from the flask. Cells were counted in a CASY Cell Counter using a 150 um capillary and their density set at 5 * 10^4 cells per mL in supplemented assay DMEM. Infected H9c2 were dispensed into 384-well poly-lysine coated assay plates at 50uL per well using a Multidrop Combi dispenser. After seeding them, the plates were incubated at 37C, 5% CO2 for 72h. Cultures were then fixed and stained by addition of 50 uL of a solution containing 8% formaldehyde and 4 uM DRAQ5 DNA dye (BioStatus, UK) per well. […] Five images were collected per well for reliable statistical analysis. Automated image analysis was performed with a script developed on Acapella High Content Imaging and Analysis Software (PerkinElmer). Output: number of amastigotes per cell as infection level measurement.; assay type: functional, organism-based, Rattus norvegicus; settings: H9c2, 4 h
Trypanosoma cruzi [4] = test: as §1, with “H2C9” for “Trypanosoma cruzi”, “H9c2 Host Cardiomyocytes.” for “Infected Cells.”, “Number” for “percentage”, “H9c2 Host Cardiomyocytes nuclei to determine drug-related cytotoxicity.” for “infected cells per well as a second infection marker.”; assay type: functional, organism-based, Rattus norvegicus; settings: H9c2, 4 h
Leishmania donovani [5] = test: GSK_TCAKS: pIC50 Leishmania donovani viability assay using fluorescence intensity. Assay plates (1536-well) were prepared by adding 30nL per well of compound. For single shot assay, the final compound concentration was 5uM. […] Briefly, eGFP LdBOB axenic amastigotes were harvested, fixed and counted in a CASY cell counter (Roche-Applied Science). A final concentration of 1.5 * 10^5 cells per well were prepared in amastigote media containing 500 U/mL penicillin/streptomycin (Invitrogen) and 6uL was dispensed to each experimental well using a Multidrop Combi dispenser (Thermo Scientific). 6uL of assay media was dispensed to control columns used as reference for 100% compound response. Following incubation for 72 h at 37C, 5% CO2, 2 uL of resazurin was added to each well at a final concentration of 0.5 mM in phosphate buffered saline (PBS) with IGEPAL (Sigma-Aldrich), 0.05% (v/v).; assay type: functional, organism-based
Leishmania donovani [6] = test: (§2) GSK_TCAKS: pIC50 Leishmania donovani Imaging: Infected Macrophages. Assay plates (384-well) were prepared by adding 250nL of compound to each well. For single shot assay, the final compound concentration was 5 uM. […] Automated image analysis was performed with a script developed on Acapella High Content Imaging and Analysis Software (PerkinElmer). Output: Percent of infected macrophage cells were reported for each well.; assay type: functional, organism-based, Homo sapiens; settings: THP-1
Leishmania donovani [7] = test: as §2, with “Amastigotes/Macrophages.” for “Infected Macrophages.”, “Average number” for “Percent”, “amastigotes per” for “infected”, “cell” for “cells”; assay type: functional, organism-based, Homo sapiens; settings: THP-1
Leishmania donovani [8] = test: as §2, with “THP-1 Host” for “Infected”, “THP-1 cell count” for “Percent of infected macrophage cells”; assay type: functional, organism-based, Homo sapiens
[9] = system: Trypanosoma brucei brucei; test: GSK_TCAKS: pIC50 Trypanosoma brucei viability assay using fluorescence intensity. Assay plates (1536-well) were prepared by dispensing 25nL of compound solution per well using an Echo acoustic dispenser (Labcyte).; assay type: functional, organism-based; settings: Lister 427, 2 h
[10] = system: Trypanosoma brucei brucei; test: GSK_TCAKS: pIC50 Trypanosoma brucei viability assay using luminiscence. Assay plates (1536-well) were prepared. T. brucei cultures were harvested and counted in a CASY cell counter. A parasite suspension was prepared at a final concentration of 5 * 10^4 cells/mL in complete HMI9 medium and 6uL was dispensed to all wells containing compounds using a Multidrop Combi dispenser. 6uL of HMI9 media with 0.4% DMSO were dispensed to control columns. Plates were incubated for 24 h at 37C, 5% CO2 then tempered for 10 min at room temperature. ATP content was quantified by adding 4 uL of CellTiter-Glo Reagent (Promega) according to the manufacturer's instructions. Luminescence was measured using a ViewLux.; assay type: functional, organism-based; settings: Lister 427, CASY
[11] = GSK_TCAKS: pIC50 HepG2 human cell line viability assay using luminiscence. […] Seeding density was checked to ensure that new mono-layers were not more than 50% confluent at the time of harvesting. Cell suspension was added to 500 mL of the same medium at a final density of 1.2 * 10^5 cells/mL. This cell suspension was dispensed (25 uL, 3000 cells per well) into 384-well clear-bottom plates using a Multidrop Combi dispenser. Prior to addition of the cell suspension, the screening compounds (250 nL) were pre-dispensed into the plates with an Echo liquid handler. Plates were incubated for 48 h at 37C, 5% CO2. After incubation, plates equilibrated at room temperature for 30 min before proceeding to develop the luminescent signal. The signal developer, CellTiter-Glo Reagent, was allowed to equilibrate at room temperature for 30 min and added to the plates (25uL per well) using a Multidrop Combi dispenser. Plates were left for 10 min at room temperature for stabilization and then read using a ViewLux.; assay type: toxicity, cell-based
[12] = target: Sterol 14-alpha demethylase (Trypanosoma cruzi (strain CL Brener), UniProt Q7Z1V1); test: GSK_TCAKS: pIC50 CYP51 from Trypanosoma cruzi.; assay type: functional
Chain of Sterol 14-alpha demethylase (Q7Z1V1 whole entry): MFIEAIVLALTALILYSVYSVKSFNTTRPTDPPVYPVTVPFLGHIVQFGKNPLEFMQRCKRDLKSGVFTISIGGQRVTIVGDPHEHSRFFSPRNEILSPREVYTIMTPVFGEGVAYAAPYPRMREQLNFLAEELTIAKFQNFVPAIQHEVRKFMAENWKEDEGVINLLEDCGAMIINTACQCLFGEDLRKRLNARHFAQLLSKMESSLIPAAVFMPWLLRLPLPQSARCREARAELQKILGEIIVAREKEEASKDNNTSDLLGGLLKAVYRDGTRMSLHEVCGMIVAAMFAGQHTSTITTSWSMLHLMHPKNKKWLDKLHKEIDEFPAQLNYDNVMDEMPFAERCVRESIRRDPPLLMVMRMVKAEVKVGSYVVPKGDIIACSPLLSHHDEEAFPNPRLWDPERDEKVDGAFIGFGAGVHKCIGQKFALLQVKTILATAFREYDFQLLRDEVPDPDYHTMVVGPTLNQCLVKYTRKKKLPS

| SMILES | IC50 (Trypanosoma cruzi [1]) [nM] | IC50 (Trypanosoma cruzi [2]) [nM] | IC50 (Trypanosoma cruzi [3]) [nM] | IC50 (Trypanosoma cruzi [4]) [nM] | IC50 (Leishmania donovani [5]) [nM] | IC50 (Leishmania donovani [6]) [nM] | IC50 (Leishmania donovani [7]) [nM] | IC50 (Leishmania donovani [8]) [nM] | IC50 [9] [nM] | IC50 [10] [nM] | IC50 at 48 h [11] [nM] | IC50 [12] [nM] |
| --- | --- | --- | --- | --- | --- | --- | --- | --- | --- | --- | --- | --- |
| COc1ccccc1-n1c(SCC(=O)Nc2ccc3c(c2)OCO3)nc2c(c1=O)SCC2 | 39800 | 15800 | 7940 | > 50100 | 10000 | 7940 | 5010 | > 50100 | > 39800 | > 39800 | > 100000 | 63100 |
| Nc1nc(-c2ccccn2)nc(N)c1Cc1c(F)cccc1Cl | 1580 | 2000 | 1580 | 1260 | 2510 | 1260 | 1000 | 31600 | 2510 | 2000 | 20000 | > 100000 |
| CC1CCCCN1C(=O)NCCc1coc(-c2ccc(F)cc2)n1 (centres undefined) | 398 | 316 | 316 | > 50100 | > 50100 | > 50100 | > 50100 | > 50100 | 126 | 158 | > 100000 | > 100000 |
| c1ccc(-c2nc(NC3CCCC3)c3ccccc3n2)nc1 | 2000 | 794 | 2000 | 501 | 3980 | 2000 | 1260 | 20000 | 6310 | 6310 | 15800 | > 100000 |
| COc1cc(F)c2ncc(F)c(CCN3CC[C@H](NCc4cc5c(cn4)OCS5)[C@@H](O)C3)c2c1 | 398 | 251 | 200 | > 50100 | 25100 | 15800 | 12600 | 15800 | 251 | 501 | 50100 | 31600 |
| CN(Cc1nc2ccc(C(=O)NCC3CCCCC3)cc2[nH]1)C1CCCc2cccnc21 (centres undefined) | 501 | 631 | 316 | 5010 | 3160 | 501 | 398 | 6310 | 794 | 316 | 15800 | 39800 |
| COc1ccc2ncc(Cl)c(CCN3CC[C@@H](NCc4cc5c(cn4)OCS5)[C@H](O)C3)c2n1 | 126 | 79.4 | 63.1 | 25100 | 10000 | 12600 | 7940 | 25100 | 316 | 398 | 50100 | 1000 |
| COc1ccc2ncc(Cl)c(CCN3CC[C@H](NCc4cc5c(cn4)OCS5)[C@@H](O)C3)c2n1 | 126 | 158 | 100 | 10000 | 2000 | 1000 | 501 | 6310 | 316 | 631 | 25100 | 7940 |
| C[C@@H](Oc1cc(-n2cnc3ccc(O[C@H]4CCNC4)cc32)sc1C(N)=O)c1ccccc1Cl | 3160 | 12600 | 6310 | 631 | > 50100 | 7940 | 5010 | 6310 | 251 | 794 | 15800 | 1260 |
| O=C(Cc1ccccc1)Nc1ccccc1C(=O)Nc1nccs1 | 39800 | > 50100 | > 50100 | > 50100 | > 50100 | > 50100 | > 50100 | > 50100 | 251 | 251 | > 100000 | > 100000 |
| CC(C)(C)c1csc(NC(=O)c2ccc([N+](=O)[O-])s2)n1 | 158 | 316 | 200 | 12600 | 1580 | 3160 | 2510 | > 50100 | 200 | 1580 | 50100 | 7940 |
| CCN(Cc1nc2ccc(C(=O)N3CCN(c4ncccn4)CC3)cc2[nH]1)C1CCCc2cccnc21 (centres undefined) | 1260 | 12600 | 2000 | 15800 | 5010 | 3980 | 1580 | 20000 | 2510 | 5010 | > 100000 | 7940 |
| O=C(Nc1nc(-c2ccc(F)cc2)cs1)c1ccc([N+](=O)[O-])s1 | 200 | 251 | 158 | 3980 | 631 | 1260 | 1000 | 7940 | 251 | 1260 | 12600 | 50100 |
| COc1ccc(-c2csc(NC(=O)c3ccc([N+](=O)[O-])s3)n2)cc1 | 158 | 251 | 200 | 31600 | 3160 | 3980 | 1580 | > 50100 | 79.4 | 794 | > 100000 | > 100000 |
| CN(Cc1nc2cccc(C(=O)N3CCN(Cc4ccccc4)CC3)c2[nH]1)C1CCCc2cccnc21 (centres undefined) | 794 | 501 | 501 | 7940 | 5010 | 1260 | 794 | 10000 | 631 | 1000 | 12600 | 39800 |
| O=C(COc1ccccc1)Nc1ccccc1C(=O)Nc1nccs1 | > 50100 | > 50100 | > 50100 | > 50100 | > 50100 | > 50100 | > 50100 | 7940 | 398 | 631 | > 100000 | > 100000 |
| CCOc1ccccc1C(=O)Nc1nnc(-c2ccc3c(c2)OCO3)s1 | 631 | 79.4 | 63.1 | > 50100 | 794 | 501 | 316 | > 50100 | > 39800 | > 39800 | > 100000 | > 100000 |
